Reference: US20200206233A1 (INTEGRAL BIOSCIENCES PRIVATE LIMITED, priority 2018, published 2020)

Tests used:
Format in all cases: biochemical
IDH1 mutant (R132H) = target: T1, IDH1 mutant (R132H) (Homo sapiens, UniProt O75874, R132H); assay: Mutant IDH1-R132H Fluorescence Assay (Resazurin based); details: 10 nM IDH1 R132H, 4 mM α-ketoglutarate, NADPH, 1.5 h at room temperature
T1 construct: purchased BPS Bioscience 71099-2
Description: IC50 values of compounds against IDH1 mutant (R132H) was determined by Resazurin based Fluorescence assay. Assays were performed in Buffer (25 mM Tris HCl, 150 mM NaCl, 10 mM MgCl2, 0.03% BSA, 2 mM 1-mercaptoethanol) where total reaction volume was 12.5 μL in low-volume 384-well plates (Cat #4511, Corning). Serially diluted compounds (3-fold) were incubated with cocktail of α-ketoglutarate (4 mM; Cat #75892-25G, Sigma), NADPH ([…]; Cat # N1630-100MG, Sigma) and buffer for 5 min, following IDH1 R132H mutant (10 nM; Cat #71099-2, BPS Bioscience) was added and incubated in dark at room temperature for 1.5 h. After 1.5 h, 6.25 μL detection solution containing Resazurin ([…]; (Cat #62758-13-8, Sigma) and Diaphorase (40 ug/ml; Cat # D2197-300UN, Sigma) in buffer was added and incubated for 15 min. Readings were taken in a Synergy Neo Plate reader (BioTek, Winooski) at single excitation of 540 nm and emission at 590 nm respectively.
(§1) The % (percent) activity of test samples was calculated as (Sample−Min)×100/(Max−Min). [Max: DMSO control, complete reaction with enzyme with DMSO and Min: No enzyme with DMSO]. Percent inhibition (100−% activity) was fitted to the “four-parameter logistic model” in XLfit for determination of IC50 values.

IDH1-WT = target: T2, IDH1-WT (Homo sapiens, UniProt O75874); assay: IDH1-WT Fluorescence Assay (Resazurin based); details: 1 nM IDH1-WT, 200 μM isocitrate, 15 μM NADP+, 30 min at room temperature
T2 construct: purchased BPS Bioscience 71075-2
Description: IC50 values of compounds against IDH1-WT was determined by Resazurin based Fluorescence assay. Assays were performed in Buffer (50 mM Tris HCl, 10 mM MgCl2, 0.03% BSA, 2 mM ß-mercaptoethanol) where total reaction volume was 25 μL in low-volume 96-well plates. Serially diluted compounds (3-fold) in DMSO (0.5% in final reaction) were incubated with cocktail of isocitrate (200 μM; Cat # I1252-1G, Sigma), NADP^+ (15 μM; Cat # N0505-500MG, Sigma) and buffer for 5 min, following addition of IDH1-WT enzyme (1 nM; Cat #71075-2, BPS Bioscience) and incubated in dark at room temperature for 30 min. After that, 12.5 μL detection solution containing Resazurin (60 μM; Cat #62758-13-8, Sigma) and Diaphorase (40 μg/ml; Cat # D2197-300UN, Sigma) in buffer was added and incubated for 15 min. Readings were taken using a Synergy Neo Plate reader (BioTek, Winooski) at single excitation of 540 nm and emission at 590 nm respectively.
as §1

IDH2 mutant (R140Q) = target: T3, IDH2 mutant (R140Q) (Homo sapiens, UniProt P48735, R140Q); assay: Mutant IDH2-R140Q Fluorescence Assay (Resazurin based); details: 5 nM IDH2 R140Q, 4 hr pre-incubation, 1 mM α-ketoglutarate, 5 μM NADPH, 2 h
T3 construct: purchased BPS Bioscience 71100-2
T3 sequence (P48735 40-452 R140Q): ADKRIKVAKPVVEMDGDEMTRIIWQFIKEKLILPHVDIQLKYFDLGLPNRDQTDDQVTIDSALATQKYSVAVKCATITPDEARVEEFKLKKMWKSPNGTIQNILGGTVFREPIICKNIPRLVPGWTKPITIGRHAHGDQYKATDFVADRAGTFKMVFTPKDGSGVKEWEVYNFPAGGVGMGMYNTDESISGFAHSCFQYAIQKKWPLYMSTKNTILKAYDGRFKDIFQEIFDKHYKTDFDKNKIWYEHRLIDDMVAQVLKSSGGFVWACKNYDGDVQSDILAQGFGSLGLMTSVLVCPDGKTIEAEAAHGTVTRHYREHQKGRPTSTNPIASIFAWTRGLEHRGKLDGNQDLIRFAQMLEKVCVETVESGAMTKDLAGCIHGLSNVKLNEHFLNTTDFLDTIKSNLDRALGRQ
Description: IC50 values of compounds against IDH2 mutant (R140Q) were determined by Resazurin based Fluorescence assay. Assay was performed in Buffer (25 mM Tris HCl, 150 mM NaCl, 10 mM MgCl2, 0.03% BSA, 2 mM 1-mercaptoethanol) where total reaction volume was 12.5 μL in low-volume 384-well plates (Cat #4511, Corning). Serially diluted compounds (3-fold) were pre-incubated with IDH2 R140Q mutant enzyme (5 nM; Cat #71100-2, BPS Bioscience) for 4 hr at RT (25° C.) followed by addition of cocktail of α-ketoglutarate (1 mM; Cat #75892-25G, Sigma), and NADPH (5 μM; Cat # N1630-100MG, Sigma) with buffer in dark at room temperature for 2 h. After 2 h incubation, 6.25 μL detection solution containing Resazurin (30 μM; (Cat #62758-13-8, Sigma) and Diaphorase (40 ug/ml; Cat # D2197-300UN, Sigma) in buffer was added and incubated for 15 min. Readings were taken in a Synergy Neo Plate reader (BioTek, Winooski) at single excitation of 540 nm and emission at 590 nm respectively.
The % activity of test samples was calculated as (Sample−Min)×100/(Max−Min). [Max: DMSO control, complete reaction with enzyme with DMSO and Min: No enzyme with DMSO]. Percent inhibition (100−% activity) was fitted to the “four-parameter logistic model” in XLfit for determination of IC50 values.

T2 sequence (O75874 whole entry): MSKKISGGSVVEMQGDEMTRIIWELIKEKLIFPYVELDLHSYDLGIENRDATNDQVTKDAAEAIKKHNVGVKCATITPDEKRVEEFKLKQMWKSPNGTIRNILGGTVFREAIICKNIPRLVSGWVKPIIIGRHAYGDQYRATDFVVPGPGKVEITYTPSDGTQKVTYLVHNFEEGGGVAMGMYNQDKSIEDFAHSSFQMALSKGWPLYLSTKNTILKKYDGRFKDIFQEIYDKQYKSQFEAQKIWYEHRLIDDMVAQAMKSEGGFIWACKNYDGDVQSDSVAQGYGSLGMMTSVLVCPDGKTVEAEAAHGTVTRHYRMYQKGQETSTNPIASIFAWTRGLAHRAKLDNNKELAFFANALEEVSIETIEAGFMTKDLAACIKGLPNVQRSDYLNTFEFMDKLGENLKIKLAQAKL
T1 sequence (O75874 whole entry R132H): as the sequence (O75874 whole entry) above, with R132H counted along it

IC50 (IDH1 mutant (R132H))	IC50 (IDH1-WT)	IC50 (IDH2 mutant (R140Q))	Compound
0.396 µM	> 50 µM	> 50 µM	Cc1nc(N[C@@H](C)c2ccc(Oc3ccccc3)cc2)nc(N2C(=O)OC[C@@H]2C(C)C)n1 [Compound 1.27, (S)-4-isopropyl-3-(4-methyl-6-((S)-1-(4-phenoxyphenyl)ethylamino)-1,3,5-triazin-2-yl)oxazolidin-2-one]
0.749 µM	> 50 µM	> 50 µM	CC[C@H]1COC(=O)N1c1nc(C)nc(N[C@@H](C)c2ccc(Sc3ccc(F)cc3)cc2)n1 [Compound 1.92, (S)-4-ethyl-3-(4-((S)-1-(4-(4-fluorophenylthio)phenyl)ethylamino)-6-methyl-1,3,5-triazin-2-yl)oxazolidin-2-one]
1.66 µM	> 50 µM	> 50 µM	CC(C)[C@H]1COC(=O)N1c1ncnc(N[C@@H](C)c2ccc(Oc3ccccc3)cn2)n1 [Compound 1.19, (S)-4-isopropyl-3-(4-((S)-1-(5-phenoxypyridin-2-yl)ethylamino)-1,3,5-triazin-2-yl)oxazolidin-2-one]
0.642 µM	> 30 µM	> 50 µM	CC(C)[C@H]1COC(=O)N1c1ncnc(N[C@@H](C)c2ccc(Oc3ccccc3)cc2)n1 [Compound 1.9, (S)-4-isopropyl-3-(4-((S)-1-(4-phenoxyphenyl)ethylamino)-1,3,5-triazin-2-yl)oxazolidin-2-one]
0.36 µM	> 50 µM	> 50 µM	CC(C)[C@H]1COC(=O)N1c1ncnc(N[C@@H](C)c2cc3cc(Cl)ccc3[nH]c2=O)n1 [Compound 1.23, (S)-3-(4-((S)-1-(6-chloro-2-oxo-1,2-dihydroquinolin-3-yl)ethylamino)-1,3,5-triazin-2-yl)-4-isopropyloxazolidin-2-one]
1.4 µM	> 50 µM	> 50 µM	Cc1cc([C@H](C)Nc2ncnc(N3C(=O)OC[C@@H]3C(C)C)n2)ncc1-c1ccnc(C(F)(F)F)c1 [Compound 1.21, (S)-4-isopropyl-3-(4-((S)-1-(4-methyl-2′-(trifluoromethyl)-3,4′-bipyridin-6-yl)ethylamino)-1,3,5-triazin-2-yl)oxazolidin-2-one]
0.414 µM	> 50 µM	> 50 µM	CC[C@H]1COC(=O)N1c1nc(C)nc(N[C@@H](C)c2ccc(Oc3ccccc3)c(-c3ccccc3)c2)n1 [Compound 1.82, (S)-4-ethyl-3-(4-methyl-6-((S)-1-(6-phenoxybiphenyl-3-yl)ethylamino)-1,3,5-triazin-2-yl)oxazolidin-2-one]
0.277 µM	> 50 µM	> 50 µM	CC[C@H]1COC(=O)N1c1nc(C)nc(N[C@@H](C)c2ccc(Oc3ccccc3)c(C)c2)n1 [Compound 1.86, (S)-4-ethyl-3-(4-methyl-6-((S)-1-(3-methyl-4-phenoxyphenyl)ethylamino)-1,3,5-triazin-2-yl)oxazolidin-2-one]
4.52 µM	> 50 µM	> 50 µM	CC(C)[C@H]1COC(=O)N1c1ncnc(NCc2ccc(Oc3ccccc3)cc2)n1 [Compound 1.28, (S)-4-isopropyl-3-(4-(4-phenoxybenzylamino)-1,3,5-triazin-2-yl)oxazolidin-2-one]
0.868 µM	> 30 µM	> 50 µM	CC[C@H](Nc1ncnc(N2C(=O)OC[C@@H]2C(C)C)n1)c1ccc(Oc2ccccc2)cc1 [Compound 1.35, (S)-4-isopropyl-3-(4-((S)-1-(4-phenoxyphenyl)propylamino)-1,3,5-triazin-2-yl)oxazolidin-2-one]
0.34 µM	> 50 µM	> 50 µM	CC[C@H]1COC(=O)N1c1nc(C)nc(N[C@@H](C)c2ccc(Oc3ccc(C)cc3)cc2)n1 [Compound 1.83, (S)-4-ethyl-3-(4-methyl-6-((S)-1-(4-(p-tolyloxy)phenyl)ethylamino)-1,3,5-triazin-2-yl)oxazolidin-2-one]
> 50 µM	> 50 µM	–	Cc1cc(-c2cnc([C@@H](C)Nc3ncnc(N4C(=O)OC[C@@H]4C(C)C)n3)nc2)ccc1F [Compound 1.2, (4S)-3-(4-{[(1R)-1-[5-(4-fluoro-3-methylphenyl)pyrimidin-2-yl]ethyl]amino}-1,3,5-triazin-2-yl)-4-(propan-2-yl)-1,3-oxazolidin-2-one]
2.87 µM	> 30 µM	> 50 µM	CC(C)[C@H]1COC(=O)N1c1ncnc(N[C@@H](C)c2ccc(Cl)c(Cl)c2)n1 [Compound 1.7, (S)-3-(4-((S)-1-(3,4-dichlorophenyl)ethylamino)-1,3,5-triazin-2-yl)-4-isopropyloxazolidin-2-one]
11.4 µM	–	> 50 µM	CC(C)[C@H]1COC(=O)N1c1ncnc(N[C@@H](C)c2ccc(-c3ccnc(C(F)(F)F)c3)cn2)n1 [Compound 1.11, (S)-4-isopropyl-3-(4-((S)-1-(2′-(trifluoromethyl)-3,4′-bipyridin-6-yl)ethylamino)-1,3,5-triazin-2-yl)oxazolidin-2-one]
19.4 µM	> 50 µM	> 50 µM	CC(C)[C@H]1COC(=O)N1c1ncnc(N[C@@H](C)c2ccccc2)n1 [Compound 1.37, (S)-4-isopropyl-3-(4-((S)-1-phenylethylamino)-1,3,5-triazin-2-yl)oxazolidin-2-one]
> 30 µM	> 30 µM	–	CC(C)[C@H]1COC(=O)N1c1ncnc(N[C@H](C)c2ccc(Cl)c(Cl)c2)n1 [Compound 1.6, (S)-3-(4-((R)-1-(3,4-dichlorophenyl)ethylamino)-1,3,5-triazin-2-yl)-4-isopropyloxazolidin-2-one]
9.01 µM	–	> 50 µM	CC(C)[C@H]1COC(=O)N1c1ncnc(N[C@@H](C)c2ccc(-c3ccc(F)cc3)cn2)n1 [Compound 1.12, (S)-3-(4-((S)-1-(5-(4-fluorophenyl)pyridin-2-yl)ethylamino)-1,3,5-triazin-2-yl)-4-isopropyloxazolidin-2-one]
> 30 µM	–	–	CC[C@H]1COC(=O)N1c1nc(C)nc(N[C@H](C)c2cc3ccccc3[nH]c2=O)n1 [Compound 1.46, (S)-4-ethyl-3-(4-methyl-6-((R)-1-(2-oxo-1,2-dihydroquinolin-3-yl)ethylamino)-1,3,5-triazin-2-yl) oxazolidin-2-one]
